Calls of active or inactive are those of the source.
Key:
[1] = target: T1, Small ubiquitin-related modifier 1 (Homo sapiens, UniProt P63165); test: inhibitors of SUMO1 peptide binding, dose response, biochemical, fluorescence polarization, uHTS hits (AID 624382); assay type: functional; conditions: read-out: IC50_Mean
[2] = target: T1, Small ubiquitin-related modifier 1; test: inhibitors of SUMO1 partner interactions, dose response, biochemical, FRET (AID 624383); assay type: functional; conditions: read-out: IC50_Mean
[3] = ZM109 Env clade C HIV-1 fusion inhibitors, dose response, HeLa effector, CEM target cells, luciferase, cherry-pick (AID 652058); assay type: functional, cell-based
[4] = inhibitors of clade B AD8 Env fusion, dose response, cell-based, cherry-pick (AID 652062); assay type: functional;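 further: luciferase signal from cell-cell fusion driven by HIV-1 clade B AD8 Env; potency is for inhibitors of fusion seen as a drop in luminescence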
[5] = off-target signal loss in HeLa-CEM21 co-culture – HeLa F-luc CTL cells, cherry-picked, counter-screen for HIV-1 Env fusion inhibitor project, dose response (AID 652040); assay type: functional, cell-based;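 further: potency for signal decrease marking cytotoxic or nonspecific inhibition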
[6] = inhibitors of HIV Env-driven cell fusion, dose response, cherry-pick (AID 652057); assay type: functional, cell-based
Protein Wnt-3a = Protein Wnt-3a (Mus musculus, UniProt P27467); test: Wnt3a-driven reporter signaling inhibition, dose response, selectivity assay for Gli-SUFU antagonist project, Wnt-LIGHT cells, luminescence (AID 651570); assay type: functional; conditions: read-out: IC50_Mean;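 further: Wnt-LIGHT reporter cells stimulated with conditioned medium from Wnt3a-producing cells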
[7] = target: SWI/SNF-related matrix-associated actin-dependent regulator of chromatin subfamily A member 2 (Homo sapiens, UniProt P51531); test: Luminescence-based cell-based high throughput dose response assay to identify activators of the function of SWI/SNF related, matrix associated, actin dependent regulator of chromatin, subfamily a, member 2 (SMARCA2, BRM).; assay type: functional
[8] = Counterscreen for activators of the function of SWI/SNF related, matrix associated, actin dependent regulator of chromatin, subfamily a, member 2 (SMARCA2, BRM): Luminescence-based cell-based high throughput dose response assay to identify non-selective compounds using the VP16 reporter assay.; assay type: functional
[9] = target: T2, Long-chain-fatty-acid--AMP ligase FadD28 (Mycobacterium tuberculosis, UniProt P9WQ59); test: Fluorescence polarization aasay to screen for inhibitors that compete for the binding of FadD28 to a bisubstrate Measured in Biochemical System Using Plate Reader - 2147-01_Inhibitor_Dose_CherryPick_Activity.; assay type: functional, Mycobacterium tuberculosis H37Rv
T2 sequence (P9WQ59 whole entry): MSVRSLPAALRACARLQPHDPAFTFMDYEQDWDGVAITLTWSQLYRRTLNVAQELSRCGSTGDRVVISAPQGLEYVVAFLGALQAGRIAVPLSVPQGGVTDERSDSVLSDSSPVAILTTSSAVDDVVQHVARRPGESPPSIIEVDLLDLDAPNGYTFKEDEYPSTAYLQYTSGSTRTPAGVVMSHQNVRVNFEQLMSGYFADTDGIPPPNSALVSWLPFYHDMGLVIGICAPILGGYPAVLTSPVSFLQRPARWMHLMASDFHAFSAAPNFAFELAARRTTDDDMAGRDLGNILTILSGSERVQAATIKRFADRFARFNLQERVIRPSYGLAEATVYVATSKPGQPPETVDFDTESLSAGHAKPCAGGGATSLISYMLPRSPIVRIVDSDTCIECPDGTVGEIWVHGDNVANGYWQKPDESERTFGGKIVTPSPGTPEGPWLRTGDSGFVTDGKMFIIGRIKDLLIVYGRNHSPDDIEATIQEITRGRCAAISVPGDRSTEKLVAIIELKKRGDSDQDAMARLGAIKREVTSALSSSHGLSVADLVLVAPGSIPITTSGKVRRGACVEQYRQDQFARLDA

[10] = target: T3, COUP transcription factor 2 (Homo sapiens, UniProt P24468); test: Luminescence-based cell-based high throughput dose response assay to identify inhibitors of COUP-TFII (NR2F2).; assay type: functional;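 further: HEK293 cells transiently cotransfected with COUP-TFII expression vector and reporter; luciferase reporter luminescence driven by COUP-TFII from the pX2-168 reporter plasmid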
T3 sequence (P24468 whole entry): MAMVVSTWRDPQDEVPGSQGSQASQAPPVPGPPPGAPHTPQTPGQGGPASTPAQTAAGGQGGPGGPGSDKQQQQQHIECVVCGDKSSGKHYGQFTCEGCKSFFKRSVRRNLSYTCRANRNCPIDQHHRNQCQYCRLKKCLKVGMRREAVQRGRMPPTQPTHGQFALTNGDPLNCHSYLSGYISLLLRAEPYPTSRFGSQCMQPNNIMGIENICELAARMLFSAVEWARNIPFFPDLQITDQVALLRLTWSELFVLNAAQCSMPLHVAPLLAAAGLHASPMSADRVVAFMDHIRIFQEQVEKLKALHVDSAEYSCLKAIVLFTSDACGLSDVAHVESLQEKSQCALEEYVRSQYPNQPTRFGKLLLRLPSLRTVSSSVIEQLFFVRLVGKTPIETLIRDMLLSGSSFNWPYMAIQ

[11] = miR-122 activators in hepatoma reporter cells, dose response, cell-based, Huh7 psiCHECK-miR122, Renilla luciferase, cherry-picked (AID 651956); assay type: functional;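 further: huh7 hepatoma cells stably carrying a psiCHECK-2 miR-122 sensor plasmid; renilla luciferase signal reporting endogenous miR-122 activity after 48 h compound exposure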

T1 sequence (P63165 whole entry): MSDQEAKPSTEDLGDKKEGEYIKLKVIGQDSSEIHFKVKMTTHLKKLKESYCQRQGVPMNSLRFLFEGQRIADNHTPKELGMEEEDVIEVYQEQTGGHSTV
Protein Wnt-3a, sequence (P27467 whole entry): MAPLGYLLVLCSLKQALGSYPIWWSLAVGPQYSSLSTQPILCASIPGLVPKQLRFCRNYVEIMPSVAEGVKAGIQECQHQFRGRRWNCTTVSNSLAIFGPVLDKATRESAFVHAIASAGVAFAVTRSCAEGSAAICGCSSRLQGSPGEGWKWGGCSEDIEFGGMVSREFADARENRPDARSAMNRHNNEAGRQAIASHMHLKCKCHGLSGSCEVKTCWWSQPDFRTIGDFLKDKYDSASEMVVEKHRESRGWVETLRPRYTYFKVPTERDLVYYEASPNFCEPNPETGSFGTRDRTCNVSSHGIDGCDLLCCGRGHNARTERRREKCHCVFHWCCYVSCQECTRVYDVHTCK
SWI/SNF-related matrix-associated actin-dependent regulator of chromatin subfamily A member 2, sequence (P51531 whole entry): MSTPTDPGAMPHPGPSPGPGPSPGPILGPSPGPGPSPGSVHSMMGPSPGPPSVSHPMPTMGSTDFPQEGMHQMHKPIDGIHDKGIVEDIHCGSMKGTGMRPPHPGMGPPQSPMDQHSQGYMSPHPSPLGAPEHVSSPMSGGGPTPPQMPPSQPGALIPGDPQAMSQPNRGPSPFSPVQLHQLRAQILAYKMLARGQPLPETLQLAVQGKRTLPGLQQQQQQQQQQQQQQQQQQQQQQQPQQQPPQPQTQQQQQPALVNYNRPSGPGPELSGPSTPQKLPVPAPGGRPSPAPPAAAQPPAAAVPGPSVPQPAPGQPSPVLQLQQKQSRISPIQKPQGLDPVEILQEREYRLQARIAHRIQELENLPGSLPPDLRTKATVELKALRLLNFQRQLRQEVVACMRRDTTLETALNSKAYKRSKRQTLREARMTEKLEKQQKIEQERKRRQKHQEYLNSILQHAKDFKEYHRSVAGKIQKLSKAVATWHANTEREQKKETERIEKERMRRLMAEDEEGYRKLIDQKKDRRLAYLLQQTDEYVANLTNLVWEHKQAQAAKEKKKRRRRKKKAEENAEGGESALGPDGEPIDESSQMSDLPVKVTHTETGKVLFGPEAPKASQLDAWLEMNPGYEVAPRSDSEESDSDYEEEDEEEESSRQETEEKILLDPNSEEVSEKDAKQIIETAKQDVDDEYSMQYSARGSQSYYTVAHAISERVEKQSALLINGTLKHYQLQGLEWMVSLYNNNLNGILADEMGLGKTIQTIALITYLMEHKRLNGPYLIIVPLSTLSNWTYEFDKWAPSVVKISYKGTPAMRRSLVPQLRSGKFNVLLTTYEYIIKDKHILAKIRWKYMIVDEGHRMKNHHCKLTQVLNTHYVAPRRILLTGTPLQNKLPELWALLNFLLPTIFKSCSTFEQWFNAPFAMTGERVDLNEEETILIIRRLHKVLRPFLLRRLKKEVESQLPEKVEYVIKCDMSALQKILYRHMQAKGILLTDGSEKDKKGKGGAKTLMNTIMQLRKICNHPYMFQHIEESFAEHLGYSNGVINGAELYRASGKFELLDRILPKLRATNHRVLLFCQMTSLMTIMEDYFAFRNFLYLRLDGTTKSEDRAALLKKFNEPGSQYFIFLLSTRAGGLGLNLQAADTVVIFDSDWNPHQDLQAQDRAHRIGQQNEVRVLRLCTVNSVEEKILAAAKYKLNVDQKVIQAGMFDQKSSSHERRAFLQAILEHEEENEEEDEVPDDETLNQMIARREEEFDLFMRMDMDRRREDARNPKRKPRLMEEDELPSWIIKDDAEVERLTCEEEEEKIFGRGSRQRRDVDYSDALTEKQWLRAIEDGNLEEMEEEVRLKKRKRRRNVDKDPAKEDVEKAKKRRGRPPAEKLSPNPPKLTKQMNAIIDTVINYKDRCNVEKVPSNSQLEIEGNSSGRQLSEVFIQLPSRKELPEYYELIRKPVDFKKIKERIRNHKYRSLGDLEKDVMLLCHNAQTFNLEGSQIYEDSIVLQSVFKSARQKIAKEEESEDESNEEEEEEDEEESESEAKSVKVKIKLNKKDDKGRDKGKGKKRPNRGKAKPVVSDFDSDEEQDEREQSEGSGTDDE

Cn1cnnc1SCC(=O)Nc1ccc(OCc2ccccc2)cc1
IC50 [1]: > 66.6 µM (inactive) | IC50 [2]: 32 µM (inactive)

COc1ccc(Cn2nnnc2C(c2cc3cccc(C)c3nc2O)N2CCOCC2)cc1 (stereo not drawn)
AC50 [3]: 5.44 µM (active) | AC50 [4]: 6.17 µM (active) | AC50 [5]: 7.1 µM (active) | AC50 [6]: 6.52 µM (active)

CCC(C(=O)NCCC(C)C)n1ccc2cc(S(=O)(=O)N3CCCCC3)ccc21 (stereo not drawn)
IC50 (Protein Wnt-3a): 5.14 µM (active)

Cc1ccnc(Nc2nc3ccccc3s2)n1
EC50 [7]: > 91.2 µM (inactive) | EC50 [8]: > 91.2 µM (inactive)

CCc1cccc2c(C(=O)COC(=O)c3cccc(S(=O)(=O)N(C)C4CCCCC4)c3)c[nH]c12
AC50 [9]: 30.6 µM (active)

CC(=O)c1cn(CCOc2ccccc2C)c2ccccc12
IC50 (Protein Wnt-3a): 3.66 µM (active) | IC50 [10]: 8.92 µM (active)

Cc1cc(C)nc(NS(=O)(=O)c2ccc(NC(=S)NC(=O)C3CCCC3)cc2)n1
AC50 [11]: 11.1 µM (active)

— ChEMBL document CHEMBL1201862, “PubChem BioAssay data set” (2004)
